# Data: patent US10639298B2 (Biohaven Pharmaceutical Holding Company Ltd., priority 2015, dated 2020)
# Legend:
# [1] = tested on: Melanoma C8161 cells; assay: Inhibition of human melanoma cell xenograft growth; type: in vivo, nude mice; conditions: P<0.01 (t test)
# Experimental: Melanoma C8161 cells were inoculated s.c. into nude mice at […]. […] Mice were treated every day for 21 days, and tumor sizes were measured twice weekly with a Vernier caliper.
# [2] = Rat pharmacokinetic studies of prodrug and released riluzole (IV or oral); type: in vivo, Sprague-Dawley rats
# Experimental: Rat Pharmacokinetic Studies of the Compounds of the Disclosure:
# Blood samples were collected at pre-determined time points including a 0 h time point and usually between 7 and 8 additional time points not exceeding a 24 h period.
# Plasma samples were extracted and analyzed using the methods described in Plasma Sample Extraction and Analysis. All data are expressed as ng/mL of the free base. Samples that were below the limit of quantification (0.5 ng/mL) were not used in the calculation of averages.
# Pharmacokinetic parameters were calculated from the time course of the plasmaconcentrations. Pharmacokinetic parameters were determined with Phoenix Winnonlin (v6.3) software using a non-compartmental model. The maximum plasma concentration (Cmax) and time to the maximum plasma concentration (Tmax) of the compound of the disclosure were observed from the data. The area under the concentration-time curve (AUC) of the compound of the disclosure was calculated using the trapezoidal formula with calculation to the last quantifiable data point, and to infinity if applicable. Plasma half-life (t½) was calculated from 0.693/slope of the terminal elimination phase. Mean residence time, MRT, was calculated by dividing the area under the moment curve (AUMC) by the AUC. Any samples below the limit of quantitation (0.5 ng/mL) were treated as zero for pharmacokinetic data analysis.
# Plasma Sample Extraction and Analysis:
# Analytical stock solutions (1.00 mg/mL of the free compound of the disclosure) were prepared in DMSO. Standards were prepared in diluted matrix containing 1 part 10% formic acid and 9 parts Sprague-Dawley rat plasma containing sodium heparin as the anticoagulant (pre-diluted with 1 part of 0.5M citric acid and 9 parts whole blood). Working solutions were prepared in 50:50 acetonitrile:water. Working solutions were then added to plasma to make calibration standards to final concentrations of 1000, 500, 100, 50, 10, 5, 1, and 0.5 ng/mL. Standards contained both the test article and riluzole. Standards were treated identically to the study samples.
# Plasma samples were extracted via acetonitrile precipitation on a Tomtec Quadra 96-Model 320 liquid handling system in a 96-well plate format.
# [3] = fasted male Sprague Dawley rats, IV, prodrug dose 2.8 mg/Kg
# [4] = fasted male Sprague Dawley rats, PO 14.6 mg/kg
smiles,measurement,setting,value
"CN(CC(=O)Nc1nc2ccc(OC(F)(F)F)cc2s1)C(=O)CNC(C)(C)C [Example 125, 2-(tert-butylamino)-N-methyl-N-(2-oxo-2-((6-(trifluoromethoxy)benzo[d]thiazol-2-yl)amino)ethyl)acetamide]",Tumor volume vs untreated or vehicle-treated controls,[1]; 4.9 mg/kg (threefold lower in molar terms) p.o. gavage every day for 21 days,significant reduction in tumor volume
same,Tumor volume vs untreated or vehicle-treated controls,[1]; 14.6 mg/kg (equimolar to riluzole) p.o. gavage every day for 21 days,significant reduction in tumor volume
same,Compound of the disclosure AUClast,[2]; [3],1526 ng·h/mL
same,Compound of the disclosure Cl,[2]; [3],29.7 mL/min/kg
same,Compound of the disclosure Vss,[2]; [3],3.57 L/kg
same,Compound of the disclosure t1/2,"[2]; fasted male Sprague Dawley rats, IV, prodrug dose 2.8 mg/Kg, 2.8 mg/kg",1.92 h
same,Prodrug AUClast (Mean),[2]; [4],2259 ng·h/mL
same,Prodrug Cmax (Mean),[2]; [4],213 ng/mL
same,Prodrug t1/2 (Mean),[2]; [4],3.8 h
same,Prodrug tmax (Mean),[2]; [4],1.80 h
same,Half life on conversion to Riluzole,[2]; intravenous administration,moderate to long half life
same,Half life on conversion to Riluzole,[2]; oral administration,long half life
same,Oral bioavailability,[2]; oral administration,high oral bioavailability
same,AUC(0-t),"[2]; rat, plasma, fasted male Sprague Dawley rats, IV, prodrug dose 2.8 mg/Kg, read-out: Compound of the disclosure AUClast",1600 ng·h/mL
same,clearance,"[2]; rat, plasma, fasted male Sprague Dawley rats, IV, prodrug dose 2.8 mg/Kg, read-out: Compound of the disclosure Cl (converted)",27.8 mL/min/kg
same,Vd,"[2]; rat, plasma, fasted male Sprague Dawley rats, IV, prodrug dose 2.8 mg/Kg, read-out: Compound of the disclosure Vss",3.51 L/kg
